According to patent US9517240B2, “Methods and compositions for cancer prevention and treatment” (THE REGENTS OF THE UNIVERSITY OF CALIFORNIA, priority 2006, dated 2016):
Entries after “also recorded” stand apart in the source; their conditions may differ. Values belong to the compound of their own block, whether it stands above or below them. Peptide text beside a SMILES is read from it. * marks the point of attachment. Cbz = O=C(OCc1ccccc1)*

What was measured:
[1] = target: T1, PR-A (Mus musculus, UniProt Q00175); assay: Determination of PR half-life in MECs with cyclohexamide and R5020; format: cell-based; settings: 10 nM R5020, 100 μg/ml cyclohexamide
T1 construct: endogenous in cells; host or cells: primary mouse mammary epithelial cells (MECs) from p53 and BRCA1/p53 conditional knockout mammary glands
T1 sequence (Q00175 1-761 isoform Q00175-2): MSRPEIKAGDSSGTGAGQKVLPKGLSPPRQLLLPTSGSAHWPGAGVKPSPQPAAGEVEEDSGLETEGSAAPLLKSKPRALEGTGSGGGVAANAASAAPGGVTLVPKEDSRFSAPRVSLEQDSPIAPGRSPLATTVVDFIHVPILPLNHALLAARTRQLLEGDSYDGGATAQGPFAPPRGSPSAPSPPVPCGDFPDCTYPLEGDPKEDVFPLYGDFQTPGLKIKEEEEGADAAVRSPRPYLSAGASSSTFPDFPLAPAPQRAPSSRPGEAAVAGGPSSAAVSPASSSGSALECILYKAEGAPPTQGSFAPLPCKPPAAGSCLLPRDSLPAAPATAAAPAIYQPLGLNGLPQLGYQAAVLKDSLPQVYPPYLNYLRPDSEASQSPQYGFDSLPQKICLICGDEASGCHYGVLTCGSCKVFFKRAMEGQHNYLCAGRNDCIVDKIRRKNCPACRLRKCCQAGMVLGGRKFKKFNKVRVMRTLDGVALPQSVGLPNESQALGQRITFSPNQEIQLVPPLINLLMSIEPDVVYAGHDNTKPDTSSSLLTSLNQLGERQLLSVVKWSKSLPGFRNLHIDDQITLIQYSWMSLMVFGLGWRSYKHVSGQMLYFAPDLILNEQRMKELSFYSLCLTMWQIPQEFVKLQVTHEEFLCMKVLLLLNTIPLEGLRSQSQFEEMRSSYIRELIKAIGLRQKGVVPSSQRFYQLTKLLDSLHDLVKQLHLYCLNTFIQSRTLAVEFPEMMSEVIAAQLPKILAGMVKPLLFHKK
From the text: (§1) MEC cultures from BRCA1^Δ11p53^Δ5&6 and p53^Δ5&6 mammary glands of two-month-old mice when MECs are histologically normal were created. The amount of PR protein, determined by western blotting, was 3-fold higher in BRCA1^Δ11p53^Δ5&6 than in p53^Δ5&6 MECs (FIG. 2D, lanes 1, 3). To further establish that PR protein stability is modulated by a proteasome pathway, MECs were exposing to MG132. PR-A was stabilized in p53^Δ5&6 but not in BRCA1^Δ11p53^Δ5&6 MECs (FIG. 2D, lanes 2, 4).
(§2) One day after plating, proliferating sub-confluent MECs or T47D cells were treated with 10 μM MG132 (BioMol Research Laboratories, Plymouth Meeting, Pa.) for 4 hr. Vehicle DMSO was added to the medium of untreated control cells. For the half-life study, 100 μg/ml of cyclohexamide (Sigma) was used and cells were harvested 0-6 hours after the addition of cyclohexamide. Cells were washed in PBS and protein lysates were prepared as described above.

[2] = system: BRCA1^Δ11p53^Δ5&6 conditional knockout mice (mammary tumors); assay: Pellet implantation and weekly monitoring for mammary tumor formation in BRCA1/p53 deficient mice; format: in vivo, mouse; settings: for mammary tumorigenesis / tumor formation (in words): 35 mg/60 day constant release pellet
Method: (§3) As progesterone is a potent mitogen for BRCA1^Δ11p53^Δ5&6 MECs specifically it was tested whether blocking PR signaling by anti-progesterone will prevent or delay mammary carcinogenesis in BRCA1^Δ11p53^Δ5&6 conditional knockout mice. An anti-progesterone pellet containing 35 mg/60 days constant release mifepristone or placebo pellet was implanted into twelve 3- and two 4-month-old mice. Mice were monitored weekly for tumor formation. The median tumor latency of BRCA1^Δ11p53^Δ5&6 conditional knockout mice was 6.6 months (n=25) with complete penetrance (FIG. 4A). All control mice or placebo pellet treated mice developed palpable tumor by 8.7 or 5.2 months of ages (n=4), respectively. […] The effects of on ductal branching and alveolar expansion were determined using mammary gland whole mounts and histological sections. […] Only 33±7 ducts in an approximate area of 0.012 mm^2 were identified in-treated mice while 678±49 ducts were found in placebo pellet-treated mice. Dramatic inhibition of tumorigenesis was also seen with the implantation of 35 mg time release (60 day) pellets of CDB-2914. […] CDB-2914 shares structural similarity with mifepristone and binds competitively to PR with high affinity.
Nulliparous mature BRCA1^Δ11/p53^Δ5&6 female mice, age 14-20 weeks, were anesthetized and pellets containing either 35 mg/60-day constant release of mifepristone (M8046, Sigma, St. Louis, Mo.) or placebo pellets (Innovative Research of America, Sarasota, Fla.) were implanted in the lateral side of the neck. Mice were monitored weekly for mammary tumors.
This Example describes the early administration of Progesterone Receptor antagonists to mice with a BRCA1 mutation to prevent or delay the development of tumors.
An effective development window for prevention treatment has also been shown for RU-486 (data not shown). I would appear that the time window for treatment is important.

[3] = system: BRCA1^Δ11p53^Δ5&6 mammary glands; assay: Immunostaining for cleaved caspase 3 in treated mammary glands; format: in vivo, mouse; settings: 3 wk or 5 wk post pellet implantation
[4] = system: BRCA1^Δ11p53^Δ5&6 mammary glands; assay: Mammary gland whole mounts and histological sections: ductal branching and alveolar expansion; format: in vivo, mouse
Method: as §3
The mammary gland was removed and flattened on paraffin paper and fixed in Carnoy's fixative (60% of absolute ethanol, 30% CHCl3, 10% HOAc) for 3 hr. It was subsequently hydrated through a series of solutions with decreasing concentrations of ethanol, and stained in carmine solution (1 g carmine, 2.5 g aluminum potassium sulfate/500 ml of water) overnight. The gland was dehydrated through a series of solutions with increasing ethanol concentrations, 50-100%, washed in xylene twice, and mounted on a slide.

[5] = system: PR-A; assay: Inhibition of proteasome degradation: PR protein level in mouse MECs (western blotting); format: cell-based; settings: 10 μM MG132 for 4 hr
From the text: as §1, §2

[6] = system: PR-A; assay: Inhibition of proteasome degradation: PR-A and ERα levels in T47D cells with siLuc or siBRCA1 (western blotting); format: cell-based, human
Method: To further test whether BRCA1 specifically affects PR stability, adenoviral siRNA-mediated knockdown of BRCA1 was introduced to T47D cells. […] In the absence of a ligand, PR-A was very stable and no significant differences were detected between siLuc and siBRCA1 knockdown cells (FIG. 3A, lanes 5, 6). The amount of PR-B was analyzed by immunoprecipitation followed by western blot (FIG. 8). Depletion of BRCA1 by adenoviral siRNA led to PR-A and PR-B accumulation.
as §2

[7] = system: BRCA1^Δ11p53^Δ5&6 conditional knockout mice (mammary tumors); assay: Pellet implantation and weekly monitoring for mammary tumor formation in BRCA1/p53 deficient mice; format: in vivo, mouse; settings: 5 mg/60 days constant release pellet
[8] = target: T2, PR (Homo sapiens, UniProt P06401); settings: cited from earlier work
T2 sequence (P06401 1-933): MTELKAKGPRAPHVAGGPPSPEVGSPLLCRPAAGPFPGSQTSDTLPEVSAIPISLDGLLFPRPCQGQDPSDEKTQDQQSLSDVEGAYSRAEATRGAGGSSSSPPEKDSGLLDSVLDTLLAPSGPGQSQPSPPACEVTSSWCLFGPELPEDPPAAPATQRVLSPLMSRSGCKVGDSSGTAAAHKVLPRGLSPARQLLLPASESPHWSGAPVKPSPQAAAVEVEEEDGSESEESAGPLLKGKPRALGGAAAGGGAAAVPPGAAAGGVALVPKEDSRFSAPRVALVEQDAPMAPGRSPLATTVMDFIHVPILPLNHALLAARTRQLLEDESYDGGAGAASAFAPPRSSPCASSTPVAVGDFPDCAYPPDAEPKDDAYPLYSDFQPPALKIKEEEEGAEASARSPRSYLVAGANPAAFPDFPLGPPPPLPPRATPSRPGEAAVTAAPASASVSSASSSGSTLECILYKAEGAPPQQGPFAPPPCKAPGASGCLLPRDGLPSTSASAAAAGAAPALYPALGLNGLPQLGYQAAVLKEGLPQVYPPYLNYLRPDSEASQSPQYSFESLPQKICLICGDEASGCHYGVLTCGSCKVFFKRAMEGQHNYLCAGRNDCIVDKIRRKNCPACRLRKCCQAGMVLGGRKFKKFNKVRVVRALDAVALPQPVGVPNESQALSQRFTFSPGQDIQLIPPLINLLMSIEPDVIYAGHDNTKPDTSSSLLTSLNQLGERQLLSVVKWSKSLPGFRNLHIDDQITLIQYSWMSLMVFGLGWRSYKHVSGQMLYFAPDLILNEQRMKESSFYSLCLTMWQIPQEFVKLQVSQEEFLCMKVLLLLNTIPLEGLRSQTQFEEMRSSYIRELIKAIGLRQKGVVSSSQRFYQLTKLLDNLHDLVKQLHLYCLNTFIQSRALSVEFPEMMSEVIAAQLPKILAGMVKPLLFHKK

[9] = system: mammary epithelial cells (MECs); assay: Hormone-induced proliferation of mammary epithelial cells in ovariectomized mice (BrdU incorporation); format: in vivo, mouse; settings: 1 mg progesterone daily for 3 days
Method: MEC proliferation peaks at the estrous phase when progesterone level is highly elevated. To assess the contribution of steroid hormones to MECs proliferation an ovariectomy was performed to deplete circulating estrogen and progesterone. Since PR is one of the downstream target genes of ER, progesterone activity was targeted. Two weeks after ovariectomy mice were treated with progesterone daily for 3 days followed by BrdU pulse labeling. In control vehicle treated mice, no BrdU-positive MECs were found in ovariectomized wt, and p53^Δ5&6 gland, but ducts containing one or two BrdU-positive cells were detected in BRCA1^Δ11p53^Δ5&6 mammary glands (FIG. 2A). Elevated proliferation seen under ovarian hormone depletion is related to the ligand-independent activation of PR in BRCA1-deficient cells. Importantly, a higher number of BrdU-positive MECs was found in BRCA1^Δ11p53^Δ5&6 mammary glands upon exposure to progesterone; ducts containing up to 6 BrdU-positive cells were identified (FIG. 2A).
Two weeks before steroid hormone treatment animals were bilaterally ovariectomized Mammary glands were stimulated to proliferate with daily subcutaneous injections of either 1 μg of estradiol (E2758, Sigma, St. Louis, Mo.) or 1 mg of progesterone (P8783, Sigma, St. Louis, Mo.) for 3 days. Untreated mice were used as controls.

PR-A present at 6 hr post R5020 treatment ([1]; BRCA1^Δ11p53^Δ5&6 MECs): 90%
half-life of PR-A ([1]; p53^Δ5&6 MECs): 2.8 h
Structure (SMILES): CCC(=O)[C@@]1(C)CC[C@H]2[C@@H]3CCC4=CC(=O)CCC4=C3CC[C@@]21C [R5020]

Structure (SMILES): CC#C[C@]1(O)CC[C@H]2[C@@H]3CCC4=CC(=O)CCC4=C3[C@@H](c3ccc(N(C)C)cc3)C[C@@]21C [mifepristone]
mammary tumorigenesis / tumor formation (in words) ([2]; BRCA1/p53 deficient mice): effective prevention of tumor formation; also recorded: prevents tumorigenesis; also recorded: inhibits mammary tumorigenesis
palpable tumors at 12 months of age ([2]; 35 mg/60 days constant release pellet implanted at 3-4 months, n=14, BRCA1^Δ11p53^Δ5&6 mice): no palpable tumors were detected
apoptotic cells (cleaved caspase 3) [3]: few apoptotic cells
side branches of mammary glands ([4]; five weeks of treatment, 35 mg/60-day pellet): substantial reduction
ducts in an approximate area of 0.012 mm^2 ([4]; five weeks of treatment, 35 mg/60-day pellet, placebo 678±49): 33±7 ducts

Structure (SMILES): CC(C)C[C@@H](C=O)NC(=O)[C@H](CC(C)C)NC(=O)[C@H](CC(C)C)NC(=O)OCc1ccccc1 [MG132] (Cbz-Leu-Leu-Leu-aldehyde)
PR-A stabilization ([5]; BRCA1^Δ11p53^Δ5&6 MECs): not
PR-A stabilization ([5]; p53^Δ5&6 MECs): stabilized
PR-A density (western blot) ([6]; control siLuc infected cells, with R5020, 1.0 without MG132): 3.8
PR-A density (western blot) ([6]; siBRCA1 infected cells, with R5020, 3.2 without MG132): 3.6
ERα stabilization ([6]; siLuc or siBRCA1 knockdown cells): stabilized to a similar extent

Structure (SMILES): CC(=O)O[C@]1(C(C)=O)CC[C@H]2[C@@H]3CCC4=CC(=O)CCC4=C3[C@@H](c3ccc(N(C)C)cc3)C[C@@]21C [CDB-2914, 17α-acetoxy-11β-(4-N,N-dimethylaminophenyl)-19-norpregna-4,9-diene-3,20-dione]
inhibition of tumors compared to control implants ([2]; 35 mg time release (60 day) pellet, BRCA1/p53 deficient mice, age 14 weeks, n=4): 100%
mammary tumorigenesis / tumor formation (in words) ([2]; BRCA1/p53 deficient mice): has a preventative effect; also recorded: inhibits mammary tumorigenesis; also recorded: effective in delaying mammary tumors
development of palpable tumors ([2]; two-month-release pellet implanted before 14 weeks of age, n=4): delayed development of palpable tumors
development of palpable tumors ([2]; two-month-release pellet placed after 15 wks): failed to do so
efficacy in tumor prevention (in words) [7]: failed to show any efficacy
ductal branching of the mammary gland ([4]; Brca1^f/fp53^f/fCrec mouse, 7.0-month-old, 35 mg/60 day pellet at 14-wk-old): inhibits ductal branching
other receptor properties [8]: anti-glucorcorticoid and anti-androgen properties
binding to PR ([8]; competitive): high affinity

Structure (SMILES): CC(=O)[C@H]1CC[C@H]2[C@@H]3CCC4=CC(=O)CC[C@]4(C)[C@H]3CC[C@]12C [progesterone]
BrdU-positive cells per duct ([9]; BRCA1^Δ11p53^Δ5&6 mammary glands): up to 6
BrdU-positive cells in the majority of MECs ([9]; wt or p53^Δ5&6 mammary gland): did not contain BrdU-positive cells
